Where “and” joins values, the source holds several entries; their conditions need not be identical. Equal values may be shown once. Entries after “also recorded” stand apart in the source; their conditions may differ. Read-outs that look alike come from different tables or passages of the source.
Tests used:
[1] = test system: ES-D3 cells (differentiation into contracting cardiomyocytes); experiment: ES-D3 cell differentiation assay of the mouse embryonic stem cell test (mEST); assay type: cell-based; conditions: for IC50: Mus musculus, Cardiomyocyte, 240 h, read-out: IC50 for inhibition of differentiation of ES-D3 cells into beating cardiomyocytes; for Outcome in the differentiation assay of the mEST: parent PAH tested without bioactivation
Experimental: The developmental toxicity of the test compounds was assessed by the inhibitory effect on the differentiation of cells of the ES-D3 cell line into contracting cardiomyocytes. The assay was performed essentially as previously described (Kamelia et al. [2020]). The cells were cultured on the lid of a 96-well plate in 45 hanging drops (volume 20 µL/drop) at a concentration of 37,500 cells/ml. The 96 wells were filled with 250 µL PBS to maintain the humidity. Sterile Eppendorf lids were placed at the corners of the 96-well plate to prevent the hanging drops from contacting the 96-well plate. The plates were sealed with micropore tape and incubated at 37 °C with 5% CO2 in a humidified atmosphere for 72 h. After 72 h, 5 ml exposure medium was prepared for each concentration of each test compound with 0.25% DMSO in a 60 × 15 mm petri dish. The formed embryonic bodies (EBs) in the hanging drops on the lid of the 96-well plate were washed off with exposure medium and collected in the petri dish. The Petri dish was subsequently incubated at 37 °C with 5% CO2 in a humidified atmosphere for 48 h. After 48 h, the EBs were transferred to a 24-well plate filled with 1 ml exposure medium per well. Each well contained 1 EB. The 24-well plates were incubated at 37 °C with 5% CO2 in a humidified atmosphere for 120 h. The number of EBs with contracting cardiomyocytes and the undifferentiated EBs were counted under a microscope. In the solvent (DMSO) control, the presence of more than 21 EBs with contracting cardiomyocytes out of 24 EBs indicates a valid assay. In each experiment, 0.5 µM (0.065 µg/ml) 5-FU was used as a positive control. The result of the differentiation assay is expressed as the fraction of differentiated EBs of the total number of EBs.
(§1) The concentration–response data for the test compounds in the mEST were presented in three curves including curves for 1-day cytotoxicity, 5-day cytotoxicity, and 10-day differentiation assays. The obtained curves were fitted using the inhibition equation log (inhibitor) vs response (three parameters) option using GraphPad Prism software 5.0 (California, USA).

ES-D3 cells = experiment: ES-D3 cell cytotoxicity (WST-1 viability) assay of the mEST; assay type: cell-based, mouse
Experimental: The viability of the ES-D3 cells following 1-day and 5-day exposure to the test compounds was measured with the WST-1 assay. To this end, 100 µL cell suspension was seeded in the inner 60 wells of 96-well plates at a concentration of 2 × 10^5 cells/ml for 1-day exposure and 10^4 cells/ml for 5-day exposure and incubated at 37 °C with 5% CO2 for 24 h. After 24 h, 100 µL exposure medium with 0.25% DMSO and the required concentration of the test compounds, solvent control, and positive control were added to the cells in triplicate. The plates were incubated at 37 °C with 5% CO2 for 1 day or 5 days until measurement. After the exposure period, 20 µL of the cell proliferation reagent WST-1 were added to each well that contained cells and the cells were incubated for 3 h at 37 °C with 5% CO2. The absorbance of each plate was measured at 440 nm and 620 nm with a SpectraMax iD3 (San Jose, USA).
as §1

[2] = In vivo kinetic study, intravenous 50 mg/kg bw, blood concentrations; conditions: rat, 50 mg/kg bw parent PAH
Experimental: Six male Sprague–Dawley rats at the age of 8–9 weeks weighing 286-305g/rat were obtained from Charles River Inc (Beijing, China). The rats were maintained in plastic cages in two groups of three in a temperature-controlled (ranging from 20 °C to 25 °C) and humidity-controlled (ranging from 40–70%) environment on a 12-h light–dark cycle. The animal bedding was corncob and used after autoclaving. The bedding and the cages were changed twice a week. The number of animals was restricted to 3 per dose group and control blood samples were collected before dosing. Feeding and living conditions followed the Chinese Laboratory Animal-Requirement of environment and housing facilities (GB14925-2010). The present rat study was approved by Institutional Animal Care and Use Committee (IACUC-BF202305006).
All animals were fasted 8 h before intravenous injection and resumed feed supply 4 h after dosing.
After administration, blood samples (0.1–0.2 ml blood volume) were taken from the medial canthus venous plexus of the animal and anticoagulated with sodium heparin. Prior to orbital venipuncture and blood collection, the animals were anesthetized by CO2 inhalation (70% CO2 + 30% O2). Blood was sampled at 1 min, 0.5, 1, 2, 4, 8, 12, 24, 32, 48, and 72 h post-dosing. After collection, blood samples were frozen and were stored at −20 °C until analysis. All animals were euthanized with 100% CO2 after the experiment.
Aliquots of 100 µL of blood samples were transferred into centrifuge tubes and 700 µL sodium acetate buffer (0.1M, pH 5.0) and 6 µL β-glucuronidase-arylsulfatase were added. The samples were incubated for 1 h at 37 °C and subsequently extracted twice with 800 µL ethyl acetate saturated with water. The samples were shaken for 30 min and centrifuged 5 min at 2000 g (4 °C). The upper organic phase was transferred to a centrifuge tube and evaporated under a gentle stream of nitrogen at 40 ℃ in a water bath. The residues were re-dissolved with 200 µL ascorbic acid:methanol (1:100). […]

[3] = test system: P450 enzymes in rat liver microsomes; design: method as in Wang et al. 2022; conditions: cited from earlier work
[4] = test system: P450 enzymes in rat liver microsomes; experiment: P450-mediated oxidative metabolism of 8-MBaP/BaP in rat liver microsomes; assay type: in vitro ADME
Experimental: 3-OH-8-MBaP was subsequently modeled to be conjugated by glucuronidation and sulfation in the liver. The kinetic constants for these conjugation reactions were determined in incubation experiments described in Sect. […] The scaling factors from rat liver microsomes and rat liver S9 to the whole liver were 45 mg microsomal protein/g liver and 125 mg S9 protein/g liver, respectively (Houston and Galetin [2008]).

rats [5] = test system: rats; design: method as in Archibong et al. 2002; conditions: rat; derived from reported in vivo dose–response data; ref Archibong et al. 2002; cited from earlier work
[6] = design: method as in Sun et al. 2002; conditions: 8-MBaP assumed to be the same as BaP; ref Sun et al. 2002; cited from earlier work
rats [7] = experiment: PBK modeling-facilitated reverse dosimetry (QIVIVE) of mEST data to predict developmental toxicity; conditions: rat
Experimental: The relationship between the in vivo 3-OH-8-MBaP concentration in maternal blood (C in vivo) and the in vitro 3-OH-8-MBaP concentration in the mEST (Cin vitro) was described by the following Eq. (2): 2 Cinvivo∗fub,invivo=Cinvitro∗fub,invitro
The fraction unbound in blood (fub, in vivo) of 3-OH-8-MBaP was calculated as 0.004 (Table 2) based on the methodology mentioned in Sect. “PBK model for 8-MBaP in rats”. The fraction unbound in the mEST (fub, in vitro) was assumed to be half of the fub, in vivo based on the ratio between the protein content in rat blood plasma (7.5%) and the mEST assay medium (15%). The unbound concentration in vitro (Cub, in vitro) inducing the developmental toxicity response in mEST was converted using Eq. (2) to an unbound concentration in blood (Cub,in vivo) that was further converted by the PBK model to a predicted oral dose.

rats [8] = test system: rats; design: method as in Wang et al. 2021; conditions: rat, oral exposure, previously predicted dose–response curve; ref Wang et al. 2021; cited from earlier work
[9] = scaled to whole liver, liver weight 9.1 g
[10] = scaled with 45 mg microsomal protein/g liver

Row | SMILES | IC50 [1] [nM] | Cytotoxicity accompanying the inhibition of differentiation (ES-D3 cells; 1-day and 5-day cytotoxicity, ES-D3 cells) | Observed in vivo Cmax relative to the model prediction (lower) [2] [fold] | Outcome in the differentiation assay of the mEST [1] | Km ([3]; read-out: Km, 8-MBaP to 3-OH-8-MBaP, ref Wang et al. 2022, listed as 8MBaP) [µM] | Km ([3]; read-out: Km, 8-MBaP to 3-OH-8-MBaP, ref Wang et al. 2022) [µM] | Km ([3]; read-out: Km, 8-MBaP to other metabolites, sum of other metabolites, ref Wang et al. 2022, listed as 8MBaP) [µM] | Km ([3]; read-out: Km, 8-MBaP to other metabolites, sum of other metabolites, ref Wang et al. 2022) [µM] | Vmax, 8-MBaP to 3-OH-8-MBaP ([3]; ref Wang et al. 2022) | Vmax, 8-MBaP to other metabolites ([3]; sum of other metabolites, ref Wang et al. 2022) | IC50 (ES-D3 cells; Mus musculus, 120 h, 5-day exposure, WST-1, read-out: IC50 for reduction of cell viability on Day 5) [nM] | Scaled Vmax, 8-MBaP to 3-OH-8-MBaP [4, 9] [µmol/h/liver] | Scaled Vmax, 8-MBaP to other metabolites [4, 9] [µmol/h/liver] | Scaled Vmax, 8-MBaP to 3-OH-8-MBaP [4, 10] [µmol/h/g liver] | Scaled Vmax, 8-MBaP to other metabolites [4, 10] [µmol/h/g liver] | ED50 for developmental toxicity, in vivo toxicity study (rats [5]) [mg/kg bw] | Permeability coefficient (Papp), apparent intestinal permeability in vivo [6] [dm/hr] | Predicted ED50 of BaP (present study) relative to previously predicted ED50 of BaP (lower) (rats [7]; oral, versus Wang et al. 2021) [fold] | Predicted ED50 of BaP (present study) relative to ED50 from the reported in vivo study (higher) (rats [7]; versus Archibong et al. 2002) [fold] | ED50 for developmental toxicity, model prediction (rats [8]) [mg/kg bw]
1 | Oc1ccc2ccc3c4ccccc4cc4ccc1c2c43 [3-OHBaP, 3-hydroxy-benzo[a]pyrene, reference compound] | 1510 | non-cytotoxic concentrations | 2.6 |  |  |  |  |  |  |  |  |  |  |  |  |  |  |  |  | 
2 | Cc1ccc2c(c1)cc1ccc3cccc4ccc2c1c34 [8-MBaP, 8-methyl-benzo[a]pyrene] | 830 |  |  | negative | 12 | 11.6 | 8 | 8.07 | 0.07 nmol/min/mg microsomal protein and 0.07^a nmol/min/mg microsomal protein | 0.43 nmol/min/mg microsomal protein and 0.43^a nmol/min/mg microsomal protein | 1740 | 2 | 11 | 0.19 | 1.18 |  |  |  |  | 
3 | c1ccc2c(c1)cc1ccc3cccc4ccc2c1c34 [BaP, benzo[a]pyrene] |  |  |  | inactive; also recorded: negative |  |  |  |  |  |  |  |  |  |  |  | 10.8 | 0.02 | 0.9 | 1.3 | 15.1

— paper PMC12454603 (Archives of Toxicology, 2025)
